Several values for one entry are separate records, joined by “and”; a condition that tells them apart may be missing. Equal values may be shown once. Results filed as inconclusive are left out.
System: BDF1 mice, Friend leukemia sc, tumor weight T/C
Experiment: NCI In Vivo Anticancer Drug Screen. Data for tumor model Friend Virus Leukemia (Solid) (subcutaneous) in B6D2F1 (BDF1) mice
Settings: endpoint: mean tumor weight, higher = larger tumour
Experimental: The antitumor activity of compounds was measured in mice bearing transplantable tumors. Survival or tumor size were measured and the results are expressed as the measurement made in the treated group (T) divided by the measurement made in the vehicle treated control group (C). The tumor model used in this assay is Friend Virus Leukemia (Solid) (subcutaneous) in B6D2F1 (BDF1) mice

[1] = dose: 5.0 mg/kg/injection, schedule: Q01DX011 (ip), vehicle: carboxymethylcellulose (CMC)
[2] = dose: 7.0 mg/kg/injection, schedule: Q01DX011 (ip), vehicle: carboxymethylcellulose (CMC)
[3] = dose: 50.0 mg/kg/injection, schedule: Q01DX011 (ip), vehicle: carboxymethylcellulose (CMC)
[4] = dose: 100.0 mg/kg/injection, schedule: Q01DX011 (ip), vehicle: carboxymethylcellulose (CMC)
[5] = dose: 200.0 mg/kg/injection, schedule: Q01DX011 (ip), vehicle: carboxymethylcellulose (CMC)
[6] = dose: 6.25 mg/kg/injection, schedule: Q01DX011 (ip), vehicle: carboxymethylcellulose (CMC)
[7] = dose: 1000.0 mg/kg/injection, schedule: Q01DX011 (ip), vehicle: carboxymethylcellulose (CMC)
[8] = dose: 0.5 mg/kg/injection, schedule: Q01DX011 (ip), vehicle: carboxymethylcellulose (CMC)
[9] = dose: 6.0 mg/kg/injection, schedule: Q01DX011 (ip), vehicle: carboxymethylcellulose (CMC)
[10] = dose: 0.13 mg/kg/injection, schedule: Q01DX011 (ip), vehicle: carboxymethylcellulose (CMC)
[11] = dose: 250.0 mg/kg/injection, schedule: Q01DX011 (ip), vehicle: carboxymethylcellulose (CMC)
[12] = dose: 500.0 mg/kg/injection, schedule: Q01DX011 (ip), vehicle: carboxymethylcellulose (CMC)
[13] = dose: 15.0 mg/kg/injection, schedule: Q01DX011 (sc), vehicle: steriod suspending solution

## S=c1nc[nH]c2nc[nH]c12
dose: 0.03 mg/kg/injection, schedule: Q01DX011 (ip), vehicle: carboxymethylcellulose (CMC)
  T/C: 55 % of control
dose: 0.05 mg/kg/injection, schedule: Q01DX011 (ip), vehicle: carboxymethylcellulose (CMC)
  T/C: 61 % of control
dose: 3.5 mg/kg/injection, schedule: Q01DX011 (ip), vehicle: carboxymethylcellulose (CMC)
  T/C: 21 % of control
[1]
  T/C: 2 % of control and 10 % of control and 12 % of control
[2]
  T/C: 13 % of control
dose: 14.0 mg/kg/injection, schedule: Q01DX011 (ip), vehicle: carboxymethylcellulose (CMC)
  T/C: 9 % of control
dose: 42.0 mg/kg/injection, schedule: Q01DX011 (ip), vehicle: carboxymethylcellulose (CMC)
  T/C: 4 % of control and 7 % of control and 16 % of control

## CCCCCCCCCCCCCS
[3]
  T/C: 109 % of control
[4]
  T/C: 105 % of control
[5]
  T/C: 101 % of control

## CSc1ncc(Br)c(Sc2nc(N)nc3nc[nH]c23)n1
dose: 3.12 mg/kg/injection, schedule: Q01DX011 (ip), vehicle: carboxymethylcellulose (CMC)
  T/C: 92 % of control
[6]
  T/C: 81 % of control
dose: 12.5 mg/kg/injection, schedule: Q01DX011 (ip), vehicle: carboxymethylcellulose (CMC)
  T/C: 51 % of control

## NNc1ncnc2nc[nH]c12
dose: 25.0 mg/kg/injection, schedule: Q01DX011 (ip), vehicle: saline
  T/C: 118 % of control
dose: 50.0 mg/kg/injection, schedule: Q01DX011 (ip), vehicle: saline
  T/C: 61 % of control

## C[C@H](N)C(=O)N[C@@H]1[C@H]2C(=C(O)C[C@@H](O)[C@@H]2O)C(=O)O[C@@H]1C
[4]
  T/C: 43 % of control
[5]
  T/C: 48 % of control
[7]
  T/C: 17 % of control

## CC1=C2C(=C[C@@](C)(CO)[C@@H]2O)C(=O)[C@](C)(O)C12CC2
dose: 7.5 micrograms/kg/injection, schedule: Q01DX011 (ip), vehicle: carboxymethylcellulose (CMC)
  T/C: 121 % of control
dose: 15.0 micrograms/kg/injection, schedule: Q01DX011 (ip), vehicle: carboxymethylcellulose (CMC)
  T/C: 91 % of control
dose: 30.0 micrograms/kg/injection, schedule: Q01DX011 (ip), vehicle: carboxymethylcellulose (CMC)
  T/C: 69 % of control

## CC(CCC(C)OS(C)(=O)=O)OS(C)(=O)=O (configuration not stated)
[8]
  T/C: 82 % of control
dose: 1.0 mg/kg/injection, schedule: Q01DX011 (ip), vehicle: carboxymethylcellulose (CMC)
  T/C: 91 % of control
dose: 2.0 mg/kg/injection, schedule: Q01DX011 (ip), vehicle: carboxymethylcellulose (CMC)
  T/C: 103 % of control
dose: 4.0 mg/kg/injection, schedule: Q01DX011 (ip), vehicle: carboxymethylcellulose (CMC)
  T/C: 105 % of control
[9]
  T/C: 98 % of control
[6]
  T/C: 56 % of control

## COc1cc([C@@H]2c3cc4c(cc3[C@H](O)[C@H]3COC(=O)[C@H]23)OCO4)cc(OC)c1OC
[10]
  T/C: 86 % of control
dose: 0.55 mg/kg/injection, schedule: Q01DX011 (ip), vehicle: carboxymethylcellulose (CMC)
  T/C: 86 % of control
dose: 135.0 micrograms/kg/injection, schedule: Q01DX011 (ip), vehicle: carboxymethylcellulose (CMC)
  T/C: 83 % of control
dose: 270.0 micrograms/kg/injection, schedule: Q01DX011 (ip), vehicle: carboxymethylcellulose (CMC)
  T/C: 114 % of control
dose: 550.0 micrograms/kg/injection, schedule: Q01DX011 (ip), vehicle: carboxymethylcellulose (CMC)
  T/C: 75 % of control
dose: 1100.0 micrograms/kg/injection, schedule: Q01DX011 (ip), vehicle: carboxymethylcellulose (CMC)
  T/C: 87 % of control

## CCOc1ccc(Nc2ncnc3nc[nH]c23)cc1CN(CCCl)CCCl
dose: 1.0 mg/kg/injection, schedule: Q01DX011 (ip), vehicle: saline
  T/C: 101 % of control
dose: 4.0 mg/kg/injection, schedule: Q01DX011 (ip), vehicle: saline
  T/C: 70 % of control

## Nc1ncnc2[nH]ncc12
dose: 0.9 mg/kg/injection, schedule: Q01DX011 (ip), vehicle: carboxymethylcellulose (CMC)
  T/C: 108 % of control
dose: 0.93 mg/kg/injection, schedule: Q01DX011 (ip), vehicle: carboxymethylcellulose (CMC)
  T/C: 74 % of control
dose: 1.8 mg/kg/injection, schedule: Q01DX011 (ip), vehicle: carboxymethylcellulose (CMC)
  T/C: 157 % of control
dose: 1.87 mg/kg/injection, schedule: Q01DX011 (ip), vehicle: carboxymethylcellulose (CMC)
  T/C: 90 % of control
dose: 1.9 mg/kg/injection, schedule: Q01DX011 (ip), vehicle: carboxymethylcellulose (CMC)
  T/C: 124 % of control
dose: 3.7 mg/kg/injection, schedule: Q01DX011 (ip), vehicle: carboxymethylcellulose (CMC)
  T/C: 57 % of control
dose: 3.75 mg/kg/injection, schedule: Q01DX011 (ip), vehicle: carboxymethylcellulose (CMC)
  T/C: 50 % of control
dose: 3.8 mg/kg/injection, schedule: Q01DX011 (ip), vehicle: carboxymethylcellulose (CMC)
  T/C: 88 % of control
[1]
  T/C: 29 % of control
[9]
  T/C: 40 % of control
[2]
  T/C: 28 % of control

## CO[C@@]12[C@H](COC(N)=O)C3=C(C(=O)C(C)=C(N)C3=O)N1C[C@@H]1N[C@@H]12
dose: 0.06 mg/kg/injection, schedule: Q01DX011 (ip), vehicle: carboxymethylcellulose (CMC)
  T/C: 48 % of control
dose: 0.1 mg/kg/injection, schedule: Q01DX011 (ip), vehicle: carboxymethylcellulose (CMC)
  T/C: 66 % of control
[10]
  T/C: 56 % of control
dose: 0.2 mg/kg/injection, schedule: Q01DX011 (ip), vehicle: carboxymethylcellulose (CMC)
  T/C: 77 % of control
dose: 0.25 mg/kg/injection, schedule: Q01DX011 (ip), vehicle: carboxymethylcellulose (CMC)
  T/C: 35 % of control and 45 % of control
dose: 0.4 mg/kg/injection, schedule: Q01DX011 (ip), vehicle: carboxymethylcellulose (CMC)
  T/C: 100 % of control
[8]
  T/C: 28 % of control
dose: 0.8 mg/kg/injection, schedule: Q01DX011 (ip), vehicle: carboxymethylcellulose (CMC)
  T/C: 75 % of control

## Cn1c(O)c(N=NC(N)=S)c2ccccc21
dose: 15.0 mg/kg/injection, schedule: Q01DX011 (ip), vehicle: saline
  T/C: 110 % of control
dose: 30.0 mg/kg/injection, schedule: Q01DX011 (ip), vehicle: saline
  T/C: 105 % of control
dose: 60.0 mg/kg/injection, schedule: Q01DX011 (ip), vehicle: saline
  T/C: 108 % of control
dose: 120.0 mg/kg/injection, schedule: Q01DX011 (ip), vehicle: saline
  T/C: 75 % of control
dose: 240.0 mg/kg/injection, schedule: Q01DX011 (ip), vehicle: saline
  T/C: 94 % of control

## NC(CO)C(=O)O (configuration not stated)
[11]
  T/C: 108 % of control
[12]
  T/C: 112 % of control

## O=C(Nc1ccc(C2=NCCN2)cc1)c1ccc(C(=O)Nc2ccc(C3=NCCN3)cc2)c(NC(=O)c2ccc(C(=O)Nc3cc(C(=O)Nc4ccc(C5=NCCN5)cc4)ccc3C(=O)Nc3ccc(C4=NCCN4)cc3)cc2)c1
dose: 125.0 mg/kg/injection, schedule: Q01DX011 (ip), vehicle: carboxymethylcellulose (CMC)
  T/C: 161 % of control
[12]
  T/C: 115 % of control

## CCOC(=O)Sc1ncnc2nc[nH]c12
dose: 7.5 mg/kg/injection, schedule: Q01DX011 (ip), vehicle: carboxymethylcellulose (CMC)
  T/C: 44 % of control
dose: 15.0 mg/kg/injection, schedule: Q01DX011 (ip), vehicle: carboxymethylcellulose (CMC)
  T/C: 48 % of control
dose: 25.0 mg/kg/injection, schedule: Q01DX011 (ip), vehicle: carboxymethylcellulose (CMC)
  T/C: 29 % of control and 40 % of control
[3]
  T/C: 17 % of control
[4]
  T/C: 2 % of control

## C[C@H]1C[C@H]2[C@@H]3CC[C@](O)(C(=O)CO)[C@@]3(C)C[C@H](O)[C@]2(F)[C@@]2(C)C=CC(=O)C=C12
dose: 0.5 mg/kg/injection, schedule: Q01DX011 (sc), vehicle: steriod suspending solution
  T/C: 61 % of control and 63 % of control
dose: 1.0 mg/kg/injection, schedule: Q01DX011 (sc), vehicle: steriod suspending solution
  T/C: 76 % of control and 91 % of control
dose: 3.0 mg/kg/injection, schedule: Q01DX011 (sc), vehicle: steriod suspending solution
  T/C: 60 % of control and 74 % of control
dose: 6.0 mg/kg/injection, schedule: Q01DX011 (sc), vehicle: steriod suspending solution
  T/C: 31 % of control
dose: 7.0 mg/kg/injection, schedule: Q01DX011 (sc), vehicle: steriod suspending solution
  T/C: 47 % of control
[13]
  T/C: 28 % of control
dose: 30.0 mg/kg/injection, schedule: Q01DX011 (sc), vehicle: steriod suspending solution
  T/C: 17 % of control
dose: 60.0 mg/kg/injection, schedule: Q01DX011 (sc), vehicle: steriod suspending solution
  T/C: 10 % of control
dose: 120.0 mg/kg/injection, schedule: Q01DX011 (sc), vehicle: steriod suspending solution
  T/C: 5 % of control

## CNC(C)=O
[11]
  T/C: 104 % of control
[12]
  T/C: 99 % of control and 107 % of control
[7]
  T/C: 75 % of control and 76 % of control

## CO[C@H]1CC[C@@]2(C)[C@@H](CC[C@H]3[C@@H]4C[C@H](O)C[C@@]4(C)CC[C@@H]32)C1
dose: 10.0 mg/kg/injection, schedule: Q01DX011 (sc), vehicle: steriod suspending solution
  T/C: 108 % of control
[13]
  T/C: 104 % of control
